According to US6960429B2, “Inhibition of viral gene activities” (priority 1997, dated 2005):
Read-outs that look alike come from different tables or passages of the source.

What was measured:
[1] = molecular target: T1, NΔ360 (derivative of EBNA1) (Epstein-Barr virus, UniProt P03211); assay type: biochemical; settings: for Ki: 6.5 nM dimers of NΔ360, 20 fmols DNA with two EBNA1-binding sites, Ki = concentration of competitor which inhibits linking to 50%, read-out: Ki against NΔ360
T1 construct: NΔ360 and NΔ389 have a methionine followed by amino acids 361 and 390 to the carboxy-terminus, respectively; added initiator methionine (N); made in house; host or cells: E. coli
From the text: (§1) Two DNAs used as probes in this study were generated by endonuclease digestion of cloned DNAs. That with two EBNA1-binding sites is the 131 bp, SalI to PstI fragment derived from p880 (30); and that with five GAL4-binding sites is the 109 bp, HinDIII to XbaI fragment derived from G5BCAT (31). DNA fragments were purified from agarose gels. […] This method distinguishes less than two-fold differences in DNA concentrations. These DNAs were labeled with the Klenow fragment of DNA Polymerase 1 in the presence of dATP, dGTP, dTTP, and ^32P α-dCTP (Amersham), and precipitated three times to remove unincorporated label (32).
(§2) The derivatives of EBNA1 (bEBNA1, NΔ360, NΔ389) and the GAL4 derivatives (GAL4(1-94), GAL4(1-94)&54-89, GAL4(1-94)&331-361, GAL4(1-94)&372-391) used in this study were all produced and purified as previously described (28). Briefly, bEBNA1 lacks amino acids 2 through 7 and all but fifteen amino acids of the gly-gly-ala repeats and was expressed in SF21 cells (23). NΔ360 and NΔ389 lack the first 360 and 389 amino acids, respectively, and were expressed in E. coli. GAL4(1-94) contains amino acids 1 to 94 of the yeast transactivator GAL4 plus eight carboxy-terminal amino acids coded by the poly-cloning region. The fusions designated GAL4(1-94)&#—# contain the indicated residues from EBNA1 cloned in frame into the poly-cloning region. All derivatives and fragments of EBNA1 were derived from the B95-8 viral strain (33, 15).
(§3) A.A. 40-89 and A.A. 331-391 were generated by amplifying the fragment of EBNA1 encoding those amino acids with PCR primers containing SalI and XbaI sites at the 5′ ends. […] The sequence of both clones was verified using an ABI Prism automated sequencer (Applied BioSystems). Expression of the fusion proteins in BL21 bacteria containing a DE3 lysogen and carrying pLysS was done as previously described (28). Purification using Ni^2+-NTA agarose (Qiagen) followed standard protocols (The QIAexpressionist, Qiagen). Following elution of A.A. 40-89 and A.A. 331-391 in 500 and 150 mM imidazole, respectively, the peptides were dialyzed into a buffer containing 50 mM Tris (pH 7.5), 2.5 mM EDTA, and 0.3 M NaCl.
(§4) Gel shift assays were done as previously described (28). All reactions contained 20 mM N-2-hydroxyethylpiperazine-N′-2-ethanesulfonic acid (HEPES; pH 7.6), 2 mM EDTA, 10% glycerol, 0.1% Nonidet P-40, and 0.3 M NaCl. Proteins were mixed in volume of 15 μl. The labeled DNA and 3 μg of poly(dI)•poly(dC) (Pharmacia) in 8 μl were added with mixing. The reactions were then incubated 30-45 minutes at room temperature. Reactions were separated by electrophoresis at 15-25 mA through a 4% polyacrylamide gel in 0.5×TBE (45 mM Tris-borate and 1 mM EDTA). Gels were dried on 3MM chromatography paper (Whatman) at 80° C. for 1 hour and then exposed to phosphorimager screens. The percentage of DNA linked is determined by dividing the amount of linked DNA by the total amount of DNA in the lane.
(§5) FIG. 3A: 20 fmols of a DNA with two EBNA1-binding sites were combined with the indicated concentrations of dimers of NΔ360 and A.A. 331-391 prior to separation by electrophoresis through a 4% polyacrylamide gel. […] The positions of linked DNA, unbound DNA, and DNA with one and two sites occupied by NΔ360 (1 and 2, respectively) are indicated. […] The percentage bound is the fraction of the total DNA in the lane which is shifted above the bracket for unbound DNA. […] The standard deviations are from three separate experiments.

[2] = test system: DNA with two EBNA1-binding sites; experiment: Gel shift assay: binding of the peptides to DNA in the absence of NΔ360; settings: for Concentration reducing linking to 50% as percentage of concentration required to bind 50% of the DNA: 6.5 nM dimers of NΔ360, DNA binding in absence of NΔ360; for Difference between Ki and concentration which bound 50% of the DNA: linking by NΔ360 vs DNA binding by peptide alone
From the text: as §1, §4, §5

[3] = molecular target: bEBNA1 (derivative of EBNA1); assay type: biochemical, Epstein-Barr virus; settings: for Ki: 6.5 nM dimers of bEBNA1, 20 fmols DNA with two EBNA1-binding sites, Ki = concentration of competitor which inhibits linking to 50%, read-out: Ki against bEBNA1; for Ki for linking by bEBNA1 relative to linking by NΔ360: DNA with two EBNA1-binding sites; for Effectiveness of competition with linking by bEBNA1 relative to linking by NΔ360: DNA with two binding sites
Procedure: (§6) Two DNAs used as probes in this study were generated by endonuclease digestion of cloned DNAs. That with two EBNA1-binding sites is the 131 bp, SalI to PstI fragment derived from p880 (30); and that with five GAL4-binding sites is the 109 bp, HinDIII to XbaI fragment derived from G5BCAT (31). DNA fragments were purified from agarose gels. They were quantified by making serial dilutions in the presence of ethidium bromide (0.5 μg/mL) and comparing their intensities, when exposed to ultraviolet light, to that of similar dilutions of a standard DNA. This method distinguishes less than two-fold differences in DNA concentrations. These DNAs were labeled with the Klenow fragment of DNA Polymerase 1 in the presence of dATP, dGTP, dTTP, and ^32P α-dCTP (Amersham), and precipitated three times to remove unincorporated label (32).
as §2, §3, §4

GAL4(1-94)&54-89 = molecular target: T2, GAL4(1-94)&54-89 (Epstein-Barr virus, UniProt P03211); experiment: Gel shift assay: inhibition of DNA-linking by GAL4(1-94)&54-89; assay type: biochemical; settings: 2.5-fold molar excess of competitor; DNA with five GAL4-binding sites (FIG. 2A)
T2 construct: made in house
Procedure: as §6, with “(32). […]” for “(32).”
Gel shift assays were done as previously described (28). […] The percentage of DNA linked is determined by dividing the amount of linked DNA by the total amount of DNA in the lane.
The ability of GAL4(1-94)&54-89 (FIG. 1) to link DNAs containing five GAL4-binding sites was tested in the absence of any competitor and in the presence of a 2.5-fold molar excess of three derivatives of EBNA1 (FIG. 1). […] For both FIGS. 2A and B the reactions were manipulated and analyzed to determine the percentage of maximum DNA linked as in FIG. 3. […]

[4] = DNA with two EBNA1-binding sites, read-out: Concentration for 50% inhibition of linking by NΔ360
[5] = linking by NΔ360, DNA with two binding sites

Row | Substance | Ki [1] | IC50 [1, 4] | Concentration reducing linking to 50% as percentage of concentration required to bind 50% of the DNA [2] | Difference between Ki and concentration which bound 50% of the DNA [2] | Ki [3] | Ki for linking by bEBNA1 relative to linking by NΔ360 [3] | Effectiveness of competition with linking by bEBNA1 relative to linking by NΔ360 [3] | further results
1 | A.A. 40-89: EBNA1 amino acids 40-89 fused to an amino-terminal epitope (T7 Tag) and 6 carboxy-terminal histidines, expressed in bacteria | 0.055 µM | 0.055 µM | 1% | 100 fold | 7.6 µM | 140 fold | approximately 1% | –
2 | A.A. 331-391: EBNA1 amino acids 331-391 fused to an amino-terminal epitope (T7 Tag) and 6 carboxy-terminal histidines, expressed in bacteria | 0.03 µM | 0.03 µM | 2% | 50 fold | 3.3 µM | 110 fold | approximately 1% | Excess of competitor relative to NΔ360 that halves the percentage of DNA linked ([1]; DNA with two EBNA1-binding sites): 5 fold; Effectiveness of competition for linking of the ten binding site DNA relative to the two binding site DNA ([1]; linking by NΔ360, data not shown): approximately 0.3%
3 | GAL4(1-94): Amino acids 1 to 94 of the yeast transactivator GAL4 plus eight carboxy-terminal amino acids coded by the poly-cloning region [reference compound] | – | – | – | – | – | – | – | Inhibition of linking by NΔ360 ([1]; 4.5-fold molar excess of GAL4-derivative, DNA with two EBNA1-binding sites (FIG. 2B)): did not inhibit linking
4 | NΔ360: EBNA1 derivative lacking the first 360 amino acids, expressed in E. coli | – | – | – | – | – | – | – | Inhibition of linking by GAL4(1-94)&54-89 (GAL4(1-94)&54-89): inhibited linking
5 | Poly-Lysine [reference compound] | 1.9 µM | – | – | – | 11 µM | 6 fold | – | IC50 ([1]; DNAs with two EBNA1-binding sites, read-out: Concentration inhibiting linking by NΔ360 to 50%): 1.9 µM; Ki of polyK relative to Ki of A.A. 40-89 [1, 5]: 35 fold; Ki of polyK relative to Ki of A.A. 331-391 [1, 5]: 60 fold
